Converted amounts (≈) assume the structure as drawn.
Tests used:
[1] = system: T24 cells; assay: MTT cell proliferation assay; assay type: cell-based, human
Description: (§1) Human tumor cell lines Eca-109, BEL-7402, BxPC-3, HCT-116, HT-29, T24, HCT-8, SGC-7901, DLD-1, TE-1, BT-549, MGC-803 and human hepatocyte cell line L-02 were cultured in Roswell Park Memorial Institute (RPMI) 1640. HuH-7 and SW-480 were cultured in Dulbecco’s modified Eagle’s medium (DMEM). J82, HepG2, Hela, U87 were cultured in Minimum Essential Medium (MEM). Murine bladder cancer cell line, MB49, was cultured in DMEM. The above-mentioned culture medium was provided by GIBCO (Grand Island, USA), contained 10% fetal bovine serum (PAN, Germany), 10 mg/mL of streptomycin, and 10 kU/mL penicillin (Beyotime, China).
(§2) Cells were seeded in 96-well plates and incubated with indicated concentrations of CHNQD-01281 for indicated periods. Next, medium was discarded and MTT (5 mg/mL) was added to each well. The cells were incubated at 37 °C for another 4 h. After that, supernatant was discarded, and DMSO was added and incubated at 37 °C for 15 min. Finally, absorbance was measured at 570 nm (Molecular Devices, USA).
To investigate whether CHNQD-01281 had selective inhibitory effect on cancer cell lines, a variety of human tumor cell lines were assayed by MTT, such as bladder cancer cell lines (J82 and T24), colorectal cancer cell lines (HCT-116, HT-29, HCT-8, DLD-1 and SW-480), cervical cancer cell line (Hela), esophageal cancer cell lines (TE-1 and Eca-109), breast cancer cell line (BT-549), gastric carcinoma cell lines (MGC-803 and SGC-7901), glioma cell line (U87), pancreatic carcinoma cell line (BxPC-3) and hepatocellular carcinoma cell lines (Hep G2, BEL-7402 and HuH-7) (Fig. 2A).

[2] = system: human hepatocyte cell line L-02; assay: MTT cell proliferation assay; assay type: cell-based; conditions: L-02, MTT, 72 h
Description: as §1, §2
Thus, the bladder cancer cell lines J82 and T24 were further investigated and treated by CHNQD-01281 under gradient concentrations (0.031−1.00 µmol/L) and times (24, 72 and 120 h) to measure proliferation activities (Fig. 2B). However, the inhibition of T24 or J82 cell lines by CHNQD-01281 was less than 50% even at the highest concentration of 1 µmol/L for 24 h. […] Therefore, CHNQD-01281 has a higher selectivity index compared to BFA.

[3] = Solubility in selected aqueous solutions; assay type: physicochemical
Description: The problem of poor water solubility is one of the factors that seriously restricts the preclinical application of BFA. Therefore, from the perspective of pharmaceutics, it is of great application value to explore safe and effective methods to improve its solubility. Based on the previous screening of commonly used solvents, solubilizers and co-solvents for BFA and its derivatives, we explored the solubility of CHNQD-01281, which was compared and assessed in selected aqueous solutions (Table 1). Saline or PBS were commonly used solvents, but the solubility of BFA or CHNQD-01281 was less than 1 mg/mL when used alone. No significant improvement in solubility was observed after the addition of DMSO or PEG400. […] More importantly, the solution system of CHNQD-01281 with saline/DMSO/solutol HS-15 (85/5/10) can fully meet the needs of follow-up experiments in vivo, such as pharmacodynamics, pharmacokinetics and safety evaluation.

## C[C@H]1CCC/C=C/[C@@H]2C[C@H](O)C[C@H]2[C@H](O)/C=C/C(=O)O1 [BFA, Brefeldin A, reference compound]
[1]; Homo sapiens, T-24, T24, MTT, 72 h
  IC50: 22 nM
[1]; L-02 versus T24
  SI (selectivity index): 1.91
[2]
  IC50: 42 nM
[3]; 25 °C, pH 7.4, aqueous with cosolvent or surfactant or cyclodextrin, No. 2: Saline/DMSO 95/5, pH 7.4, 25 °C
  solubility: < 1000 µg/mL
[3]; 25 °C, pH 7.4, aqueous with cosolvent or surfactant or cyclodextrin, No. 3: PBS/DMSO 95/5, pH 7.4, 25 °C
  solubility: < 1000 µg/mL
[3]; 25 °C, pH 7.4, aqueous with cosolvent or surfactant or cyclodextrin, No. 4: Saline/PEG400 95/5, pH 7.4, 25 °C
  solubility: < 1000 µg/mL
[3]; 25 °C, pH 7.4, aqueous with cosolvent or surfactant or cyclodextrin, No. 5: Saline/PEG400 80/20, pH 7.4, 25 °C
  solubility: < 1000 µg/mL
[3]; 25 °C, pH 7.4, aqueous with cosolvent or surfactant or cyclodextrin, No. 6: Saline/DMSO/solutol HS-15 85/5/10, pH 7.4, 25 °C
  solubility: 1000 to 1500 µg/mL (≈ 3.57 to 5.35 mM)
[3]; 25 °C, pH 7.4, aqueous with cosolvent or surfactant or cyclodextrin, No. 7: Saline/solutol HS-15 95/5, pH 7.4, 25 °C
  solubility: < 1000 µg/mL
[3]; 25 °C, pH 7.4, aqueous with cosolvent or surfactant or cyclodextrin, No. 8: Saline/solutol HS-15 90/10, pH 7.4, 25 °C
  solubility: < 1000 µg/mL
[3]; 25 °C, pH 7.4, saline or isotonic, No. 1: Saline (0.9% NaCl) 100, pH 7.4, 25 °C
  solubility: < 1000 µg/mL
[3]; Saline or PBS used alone
  solubility: < 1000 µg/mL
